According to article PMC12655457, “Does CytoSorb Interfere with Immunosuppression? A Pharmacokinetic and Functional Evaluation” (Pharmaceutics, 2025):

Tests used:
[1] = literature; ref 21 (6-MP), 22 (CsA), 23 (MPR), 24 (MPA), 25 (TAC); cited from earlier work
human whole blood [2] = assay: Whole blood cell model: LPS stimulation, cytokine measurement; format: cell-based; conditions: + CytoSorb
Procedure: (§5) Subsequently, the blood was split into two experimental groups: one was treated with CytoSorb in a batch setup, and the other served as an untreated control, incubated under identical conditions at 37 °C on a roller mixer. Following treatment, all samples were allowed to rest for 4 h. After the resting period, blood samples were stimulated with either lipopolysaccharide (LPS) E. coli or with anti-CD3 antibodies. […] The stimulation was carried out for 4 h at 37 °C on a roller mixer. Thereafter, the blood samples were centrifuged, and the plasma was collected and stored at −80 °C. Leukocyte activation was assessed by quantification of IL-1β, IL-6, IL-8, and TNF-α.

human whole blood [3] = assay: Whole blood cell model: anti-CD3 stimulation, cytokine measurement; format: cell-based; conditions: + Anti-CD3, + CytoSorb
Procedure: as §5

[4] = set-up: method as in earlier work; conditions: literature; ref 23 (methylprednisolone), 24 (mycophenolate), 41 (6-mercaptopurine); cited from earlier work
[5] = Dynamic CytoSorb adsorption setup (scaled-down circuit, whole blood); format: in vitro ADME, human; conditions: for mean clearance rate: CytoSorb treatment, at 15 min, Equation (2); for adsorption (removal) by CytoSorb: dynamic ex vivo circuit, 400 mL human whole blood, 30 mL cartridge, 4 h
Procedure: To quantify the depletion of selected immunosuppressants during CytoSorb treatment under dynamic conditions, a scaled-down extracorporeal circulation system was established, consisting of a 30 mL CytoSorb adsorption cartridge and a pediatric tubing set filled with 400 mL of freshly drawn human whole blood (Figure 1b). To distinguish between drug removal by adsorption versus uptake by blood components, a control circuit with an identical setup but an empty cartridge was run in parallel for each experiment. Whole blood from two healthy donors of the same blood group was pooled, anticoagulated with citrate (final concentration: 7 mM), spiked with the immunosuppressants, and divided into two 400 mL blood bags.
Prior to circulation, the entire system was flushed with isotonic saline. Then, one of the prepared blood bags (Group 1 or Group 2) was connected to the circuit and circulated for 30 min at 37 °C without the adsorber cartridge to allow for equilibration. Following this equilibration, a baseline sample (0 min) was collected, and the adsorption column was introduced into the circuit. In the adsorption circuit, samples were collected at 15, 30, 60, 120, 180 and 240 min. In the control circuit, samples were taken at baseline and after 240 min. All blood samples were centrifuged (3500× g, 10 min) to separate plasma, which was stored at −80 °C until further analysis.
(§1) The clearance (C) of each compound during both the dialysis and the dynamic CytoSorb experiments was calculated using the first-order exponential decay formula:(2) C = V/t ×lnCo/Ct where V = plasma volume, t = treatment time [min], C0 = concentration before starting treatment, Ct = concentration at time t.
(§2) MPA was determined using a validated test for the Cobas c311 autoanalyzer from Roche (Basel, Switzerland). 6-MP was quantified by reversed-phase HPLC [17, 18]. After precipitation of the plasma sample with ice cold methanol in ratio 1:5, 30 µL of the supernatant was injected into a Nukleosil 100-5C18, 4.6 × 150 mm C18 column (Macherey-Nagel, Düren, Germany), combined with an Onyx Monolithic C18, 4.6 × 5 mm guard column (Phenomenex, Torrance, CA, USA). The mobile phase consisted of methanol and deionised water (50:50) which was continuously pumped with a flow rate of 0.8 mL/min for five minutes. 6-MP was quantified with a retention time of 2.3 min using an UV detector (325 nm). The quantification of cytokines was determined by Magnetic Luminex Assay with a human premixed Multi Analyte Kit (R&D Systems, Minneapolis, MN, USA). The urea, albumin and total protein levels were measured with the cobas c311 automated analyzer with corresponding test kits from Roche (Penzberg, Germany).

[6] = Determination of protein binding by ultrafiltration; format: in vitro ADME; conditions: human plasma, ultrafiltration 30 kDa cutoff
Procedure: To assess protein binding of the tested immunosuppressants, human plasma was spiked with the respective drugs and urea as a freely diffusible control. Samples were then subjected to ultrafiltration (30 kDa cutoff, 15,000× g, 20 min). The protein-bound fraction was calculated using the following formula:(1) protein binding %= 1−Cfiltrate/Cplasma where cplasma is the concentration of each compound in plasma and cfiltrate is its concentration in the ultrafiltrate.

[7] = Removal of immunosuppressants by chronic dialysis (ex vivo, plasma); format: in vitro ADME, human
Procedure: (§3) To evaluate the effect of dialysis under clinically relevant conditions, both chronic and acute dialysis settings were simulated using standard Fresenius systems. In all experiments, 1.5 L of citrated human plasma was dialyzed against calcium-free dialysate at 37 °C.
(§4) Prior to circulation, the systems were flushed with 2 L of isotonic saline. Plasma samples were collected at defined time points (15–480 min) and analyzed for immunosuppressants, urea, and albumin. Chronic dialysis represents intermittent high-flow conditions, whereas acute dialysis mimics continuous low-flow therapy used in critically ill patients.
as §1

[8] = Static CytoSorb adsorption setup (spiked plasma with CytoSorb resin); format: in vitro ADME, human; conditions: plasma:resin 1:10 v/v, 60 min, 37 °C, n = 3
Procedure: Plasma was obtained by centrifugation (3500× g, 10 min) from citrate-anticoagulated human whole blood and spiked with immunosuppressants to defined target concentrations (Table 1). To evaluate adsorption, plasma was incubated with the CytoSorb resin at 1:10 (v/v) for 60 min at 37 °C on a roller mixer. In parallel, a separate aliquot of spiked plasma was incubated with autologous blood cells (1:1, v/v) to assess cellular uptake of immunosuppressants. Untreated spiked plasma served as control (Figure 1a). Samples were collected before and after incubation for subsequent analysis.
as §2

[9] = Whole blood cell model: immunosuppressant serum levels after CytoSorb treatment; format: in vitro ADME, human; conditions: overnight incubation, p < 0.05, n = 6
Procedure: To investigate whether the in vitro depletion of immunosuppressants by CytoSorb affects immunosuppression, a whole blood cell model was established. The experiment was conducted over two consecutive days. A graphical overview of the setup is provided in Supplementary Figure S1. On day one, freshly drawn human whole blood was incubated overnight at 37 °C with various immunosuppressants, either individually or in combination, to allow for sufficient drug exposure prior to CytoSorb treatment.
Subsequently, the blood was split into two experimental groups: one was treated with CytoSorb in a batch setup, and the other served as an untreated control, incubated under identical conditions at 37 °C on a roller mixer. Following treatment, all samples were allowed to rest for 4 h. After the resting period, blood samples were stimulated with either lipopolysaccharide (LPS) E. coli or with anti-CD3 antibodies. LPS primarily activates monocytes and neutrophils via the TLR4/CD14/MD2 complex, while anti-CD3 specifically stimulates T cells. The stimulation was carried out for 4 h at 37 °C on a roller mixer. Thereafter, the blood samples were centrifuged, and the plasma was collected and stored at −80 °C. Leukocyte activation was assessed by quantification of IL-1β, IL-6, IL-8, and TNF-α.
as §2

[10] = Removal of immunosuppressants by acute dialysis (CVVHD, ex vivo, plasma); format: in vitro ADME, human
Procedure: as §3, §4, §1

Compound	IL-1β serum level (human whole blood [2]; test 1) [pg/mL]	IL-6 serum level (human whole blood [2]; test 1) [pg/mL]	IL-8 serum level (human whole blood [2]; test 1) [pg/mL]	TNF-α serum level (human whole blood [2]; test 1) [pg/mL]	IL-1β serum level (human whole blood [2]; test 2) [pg/mL]	IL-6 serum level (human whole blood [2]; test 2) [pg/mL]	IL-8 serum level (human whole blood [2]; test 2) [pg/mL]	TNF-α serum level (human whole blood [2]; test 2) [pg/mL]	IL-1β serum level (human whole blood [2]; test 3) [pg/mL]	IL-6 serum level (human whole blood [2]; test 3) [pg/mL]	IL-8 serum level (human whole blood [2]; test 3) [pg/mL]	TNF-α serum level (human whole blood [2]; test 3) [pg/mL]	IL-1β serum level (human whole blood [3]; test 1) [pg/mL]	IL-6 serum level (human whole blood [3]; test 1) [pg/mL]	IL-8 serum level (human whole blood [3]; test 1) [pg/mL]	TNF-α serum level (human whole blood [3]; test 1) [pg/mL]	IL-1β serum level (human whole blood [3]; test 2) [pg/mL]	IL-6 serum level (human whole blood [3]; test 2) [pg/mL]	IL-8 serum level (human whole blood [3]; test 2) [pg/mL]	TNF-α serum level (human whole blood [3]; test 2) [pg/mL]	other results
COc1c(C)c2c(c(O)c1C/C=C(\C)CCC(=O)O)C(=O)OC2 [MPA, mycophenolic acid]	992	3303	4068	3390	112	627	2855	1274	1465	16855	15529	720	0	4	564	107	115	645	3704	109	Protein Binding in Plasma, Reference [1]: 97 [24] %; IL-1β serum level (human whole blood [3]; test 3): 170 pg/mL; IL-6 serum level (human whole blood [3]; test 3): 952 pg/mL; IL-8 serum level (human whole blood [3]; test 3): 4924 pg/mL; TNF-α serum level (human whole blood [3]; test 3): 55 pg/mL; volume of distribution (Vd) [4]: ≈ 3.6 L/kg; mean clearance rate [5]: approximately 44 mL/min; adsorption (removal) by CytoSorb [5]: 76 ± 2%; fraction unbound ([6]; read-out: Protein Binding in Plasma, Current Study (converted)): 0.021; removal by dialysis (in words) [7]: only slightly reduced; reduction of level in plasma by CytoSorb [8]: 37 ± 6%; reduction in serum level following CytoSorb treatment (in words) [9]: significant reduction
C=CC[C@@H]1/C=C(\C)C[C@H](C)C[C@H](OC)[C@H]2O[C@@](O)(C(=O)C(=O)N3CCCC[C@H]3C(=O)O[C@H](/C(C)=C/[C@@H]3CC[C@@H](O)[C@H](OC)C3)[C@H](C)[C@@H](O)CC1=O)[C@H](C)C[C@@H]2OC [TAC, tacrolimus]	412	7095	7756	1967	62	584	2388	1337	646	23302	50044	690	18	28	1654	38	93	773	8613	53	IL-1β serum level (human whole blood [3]; test 3): 268 pg/mL; IL-6 serum level (human whole blood [3]; test 3): 2598 pg/mL; IL-8 serum level (human whole blood [3]; test 3): 25920 pg/mL; TNF-α serum level (human whole blood [3]; test 3): 85 pg/mL; mean clearance rate [5]: around 15 mL/min; reduction of serum levels by CytoSorb (abstract) ([5]; as stated in the abstract, experiment not specified): no significant effect; adsorption (removal) by CytoSorb [5]: 18 ± 16%; Protein Binding in Plasma, Current Study [6]: 97.9 ± 10.9%; removal by dialysis (in words) [7]: not effectively removed; clearance ([7]; throughout): below 2 mL/min; reduction of level in plasma by CytoSorb [8]: not affected; removal by dialysis (in words) [10]: not effectively removed; reduction in serum level following CytoSorb treatment (in words) [9]: no significant adsorption
